# Measurements as given in EP1192182B1, “PITUITARY ADENYLATE CYCLASE ACTIVATING PEPTIDE (PACAP) RECEPTOR 3 (R3) AGONISTS AND THEIR PHARMACOLOGICAL METHODS OF USE” (priority 1999, dated 2001).
# Starred links: 1 amine or outer side, 2 acyl side, 3 side chain; linkers in the order of their positions; H or OH if unused. Non-standard residues stand in square brackets, D forms with d. Residues, ends and D or L forms follow the SMILES beside them. No end group written: not given here. Tyr(Me) = O-methyl-Tyr (CH3O-Y), COc1ccc(C[C@H](N[*:1])C(=O)[*:2])cc1; Nle = CCCC[C@H](N)C(=O)O
# B1: rR3P167 (peptide)
# peptide: HSDAVFTDNYTRLRKQMAAKKYLNSIKNKT
# B2: rR3P171 (peptide)
# peptide: HSDAVFTDNYTRLRKQVAAKKYLQSIKNKRYSWCEPGWCR
# B3: PAC27 (peptide)
# peptide: HSDAVFTDNYTRLRKQMAAKKYLNSIKNRI-NH2
# B4: R3P173 (peptide)
# peptide: ESDGIFTDSYSRYRKQMAVKKYLAAVL
# B5: R3P172 (peptide)
# peptide: HSDAVFTDDYTRLRKEVAAKKYLESIKDKRY
# B6: rR3P169 (peptide)
# peptide: HSDAVFTDNYTRLRKQMAAKKYLNSIKNKW
# Assays:
# PACAP-R3 [1] = molecular target: T1, PACAP-R3 (Homo sapiens, UniProt P41587); conditions: literature; cited from earlier work
# T1 sequence (P41587 24-438): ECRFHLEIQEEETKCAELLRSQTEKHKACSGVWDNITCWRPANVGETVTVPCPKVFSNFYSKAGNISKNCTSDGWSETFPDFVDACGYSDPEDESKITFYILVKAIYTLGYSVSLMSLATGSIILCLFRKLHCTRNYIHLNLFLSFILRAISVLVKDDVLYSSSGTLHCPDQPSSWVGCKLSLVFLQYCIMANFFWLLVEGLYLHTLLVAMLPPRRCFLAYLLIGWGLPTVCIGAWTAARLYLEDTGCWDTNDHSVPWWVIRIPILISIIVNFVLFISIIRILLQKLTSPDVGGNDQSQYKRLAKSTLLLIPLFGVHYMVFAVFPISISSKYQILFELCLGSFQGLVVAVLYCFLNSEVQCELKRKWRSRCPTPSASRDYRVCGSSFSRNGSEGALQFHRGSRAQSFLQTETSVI
# [2] = Peptide-induced elevation of plasma insulin after IVGTT; assay type: in vivo; conditions: one minute after IVGTT (0.4g/kg glucose), 1 nmole/kg peptide i.v., Wistar rats
# Description: Wistar rats are fasted overnight (17 hrs) and then anesthetized with pentobarbital (0.1 ml/100 g BW). Glucose (0.4 g/kg dissolved in 1% human albumin-saline) +/- peptide (dissolved in 1% human albumin-saline) is injected intravenously into the tail vein. The rats are eye-bled 1 minute after the injection and 50-100ul of the plasma are assayed for insulin level with the Linco RIA kit (Linco Research, Inc., St. Charles, MO).
# (§1) In accordance with the protocol of example 2 above, overnight fasted Wistar rats were anesthetized with pentobarital; i.v. injected with glucose ± peptide and eye bled after 1 minute. N=12 rats/group. […] The peptide or vehicle was given i.v. followed by a glucose load given i.p. in accordance with example 3. The plasma glucose was followed over the time period indicated.
# Plasma insulin: Data are expressed as % of plasma insulin one minute after IVGTT (0.4g/kg glucose) with either saline, 0.1nmol/kg P51, P55, P60, P66 or 1 nmole/kg of the other peptides including peptides which are not part of the present invention in Wistar rats. Blood was drawn from the eye and insulin was measured with the rat insulin RIA kit (Linco Research, Inc, St. Charles, MO).
# [3] = Intraperitoneal glucose tolerance test (IPGTT), plasma glucose; assay type: in vivo, Wistar rats
# Description: Wistar rats are fasted overnight and then anesthetized with pentobarbital. The rats were eye-bled (zero time) and the peptide ( in 1% human albumin) was injected into the tail vein. Five minutes later, 1 g/kg of glucose (in saline) was injected intraperitoneally, and the rats were eye-bled after 15, 30 and 60 minutes. Plasma glucose levels were determined using the Technicon Axon autoanalyzer, Bayer Diagnosics division of Bayer Corporation, Tarrytown NY, operated using Method No. SM4-2143F90 "Glucose".
# as §1
# Wistar rats were fasted overnight and then anesthetized with Pentobarbital. The rats were eye-bled (zero time) and the peptide (in 1 % human albumin) was injected subcutaneously. Five minutes later, 1 g/kg of glucose (in saline) was injected intraperitoneally, and the rats were eye-bled after 30 minutes.
# Plasma glucose: Data are expressed as % of vehicle of plasma glucose area under the curve after IPGTT (1 g/kg glucose) after treatment with 1 nmol/kg dose of the peptide. […] The present Inventors have shown for the first time that this is because the effects of R2 and R3 on glucose tend to cancel each other out. […] Therefore, R3-selectlvlty appears to be a desirable attribute for medicaments which are to be employed in achieving blood glucose reduction, for treatment of type 2 diabetes.
# rat islets = assay: Insulin release from isolated rat islets; assay type: cell-based, Sprague-Dawley rats; conditions: peptide 10nM for 2hrs, 8mM glucose; % of [insulin] in 8mM glucose alone
# Description: Sprague Dawley rats (275-320 g) were used as the source of donor islets. Briefly, the pancreas was filled with 10 ml of cold reconstituted Liberase RI (Boehringer Manheim), harvested and incubated with additional 5 ml enzyme solution in water bath for 30 minutes. Tissue suspension was washed twice with cold 10% FBS/Hanks buffer (Gibco), resuspended in 8 ml 25% ficoll (Sigma) and then layered with 5 ml each of 23%, 20% and 11 % ficoll. The islets in the 20% layer after centrifugation were removed, washed twice with cold 10% FBS/Hank buffer and resuspended in 10% FBS/RPMI 1640 media (Sigma).
# Islet insulin release: Rat islets were isolated from Sprague-Dawley rats as described in example 1 and treated with either vehicle or specified peptide (10nM) for 2hrs. Insulin concentration in the medium was measured with the Linco rat insulin RIA kit. Glucose concentration in the medium was 8mM. The data are expressed as % of [insulin] in 8mM glucose alone. No polypeptide-induced Increases in insulin concentration were observed al 3 mM glucose; thus, the insulin releasing activity of these polypeptides are glucose-dependent. It should be noted that the following Table includes data for polypeptides which are not part of the present invention.
# PACAP-R3 [4] = molecular target: T1, PACAP-R3; assay: Cyclic AMP SPA on CHO cells expressing PACAP R3; assay type: cell-based; set-up: expressed in transfected cells; host or cells: CHO cells; conditions: cAMP SPA, CHO cells transfected with PACAP-R3; EC50 = concentration at which 50% of maximum PACAP27 activity is achieved; NA = no detectable activities
# Description: (§2) CHO cells expressing the PACAP R3 were plated in 96-well plates (Costar) at 8 x 10^4 cell/well and grown at 37C for 24 hours in a MEM + nucleosides + glutamine (Giobco BRL), 10% FBS, 100 µg/ml Pen/Strep, 0.3 mg/ml glutamine, 1 mM HEPES, 0.5 mg/ml Geneticin (Gibco BRL). The media was removed and the plates were washed with PBS. The cells were incubated with a peptide, in Hepes-PBS-BSA with 0.4mg/mlSoybean Trypsin inhibitor, 0.5 mg/ml Bacitracin, 100uM IBMX, for 15 min at 37 C. Cyclic AMP in the ceii extracts was quantitated using the cAMP SPA direct screening assay system (Amersham Pharmacia Biotech Inc, Piscataway, NJ,). The peptides shown in Table 3 were assayed for cAMP activity.
# (§3) EC50 is defined as the concentration of the polypeptide at which 50% of maximum PACAP27 activity is achieved. "NA" denotes no detectable activities. "R3 Selectivity" is derived from the ratio of EC50 at R2 versus EC50 at R3. […]
# PACAP-R2 = molecular target: T2, PACAP-R2 (Homo sapiens, UniProt P32241); assay: Cyclic AMP SPA on CHO cells transfected with PACAP-R2; assay type: cell-based; conditions: cAMP SPA, EC50 = concentration at which 50% of maximum PACAP27 activity is achieved, NA = no detectable activities
# T2 construct: expressed in transfected cells; host or cells: CHO cells
# T2 sequence (P32241 31-457): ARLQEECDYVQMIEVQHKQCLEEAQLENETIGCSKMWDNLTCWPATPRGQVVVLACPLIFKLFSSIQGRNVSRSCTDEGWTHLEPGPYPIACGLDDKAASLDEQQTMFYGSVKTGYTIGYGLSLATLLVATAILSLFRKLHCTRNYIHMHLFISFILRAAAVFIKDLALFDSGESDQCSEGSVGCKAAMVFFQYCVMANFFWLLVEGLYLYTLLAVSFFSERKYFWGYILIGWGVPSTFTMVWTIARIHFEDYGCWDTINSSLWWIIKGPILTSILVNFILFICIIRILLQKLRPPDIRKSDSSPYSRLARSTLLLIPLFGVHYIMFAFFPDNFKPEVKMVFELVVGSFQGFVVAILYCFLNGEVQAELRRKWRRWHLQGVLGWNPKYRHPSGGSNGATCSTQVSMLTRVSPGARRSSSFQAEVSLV
# Description: as §2, §3
# [5] = molecular target: T3, human PACAP/VIP R2 (PACAP R3) receptor (human, UniProt P41587 24-438); assay: cell-based or functional assay
# T3 sequence (looked up): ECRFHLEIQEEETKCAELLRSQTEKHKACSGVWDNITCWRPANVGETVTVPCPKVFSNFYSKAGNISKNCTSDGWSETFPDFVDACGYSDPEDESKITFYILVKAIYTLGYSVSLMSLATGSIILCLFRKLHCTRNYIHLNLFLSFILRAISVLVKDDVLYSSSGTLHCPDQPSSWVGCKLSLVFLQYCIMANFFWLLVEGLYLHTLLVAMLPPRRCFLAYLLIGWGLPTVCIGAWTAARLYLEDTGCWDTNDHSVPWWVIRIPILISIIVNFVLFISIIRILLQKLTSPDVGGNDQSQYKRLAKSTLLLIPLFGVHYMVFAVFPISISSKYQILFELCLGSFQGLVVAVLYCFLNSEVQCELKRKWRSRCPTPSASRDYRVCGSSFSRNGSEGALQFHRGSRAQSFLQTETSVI
molecule,measurement,setting,value
Ac-HSDAVFTEN(CH3O-Y)TKLRKQNIeAAKKYLNDLKK-NH2 (Ac-HSDAVFTEN[Tyr(Me)]TKLRKQ[Nle]AAKKYLNDLKK-NH2) [Peptide R3P4],PACAP-R3 selectivity,PACAP-R3 [1],greater than 100 fold
CC(C)C[C@H](NC(=O)[C@H](CCC(N)=O)NC(=O)[C@H](CCCCN)NC(=O)[C@H](CCCNC(=N)N)NC(=O)[C@H](CC(C)C)NC(=O)[C@H](CCCCN)NC(=O)[C@@H](NC(=O)[C@H](Cc1ccc(O)cc1)NC(=O)[C@H](CC(N)=O)NC(=O)[C@H](CCC(=O)O)NC(=O)[C@@H](NC(=O)[C@H](Cc1ccccc1)NC(=O)[C@@H](NC(=O)[C@H](C)NC(=O)[C@H](CC(=O)O)NC(=O)[C@H](CO)NC(=O)[C@@H](N)Cc1c[nH]cn1)C(C)C)[C@@H](C)O)[C@@H](C)O)C(=O)N[C@@H](C)C(=O)N[C@@H](C)C(=O)N[C@@H](CCCCN)C(=O)N[C@@H](CCCCN)C(=O)N[C@@H](Cc1ccc(O)cc1)C(=O)N[C@@H](CC(C)C)C(=O)N[C@@H](CC(N)=O)C(=O)N[C@@H](CC(=O)O)C(=O)N[C@@H](CC(C)C)C(=O)N[C@@H](CCCCN)C(=O)N[C@@H](CCCCN)C(=O)NCC(=O)NCC(=O)N[C@H](C(=O)N[C@@H](CO)C(=O)N[C@@H](Cc1c[nH]c2ccccc12)C(=O)N[C@@H](CS)C(=O)N[C@@H](CCC(=O)O)C(=O)N1CCC[C@H]1C(=O)NCC(=O)N[C@@H](Cc1c[nH]c2ccccc12)C(=O)N[C@@H](CS)C(=O)N[C@@H](CCCNC(=N)N)C(=O)O)[C@@H](C)O [Peptide R3P19] (H-HSDAVFTENYTKLRKQLAAKKYLNDLKKGGTSWCEPGWCR-OH; C-terminus assumed),Plasma Insulin (% of Basal),[2],285 % of Basal
HSDAVFTDNYTRLRKQLAAKKYLNDIKK-NH2 [Peptide R3P13],glucose disposal in the rat,"[3]; 1 nmole/kg dose, subcutaneous route, FIG. 7 legend",enhance glucose disposal
same,elevation of plasma glucose 30 minutes after IPGTT,"[3]; 1 nmole/kg s.c., vehicle: 160 mg/dl above basal, Figure 7",significantly reduced
same,Plasma Glucose (% of Basal) s.c.,"[3]; plasma glucose area under the curve after IPGTT (1 g/kg glucose), % of vehicle, 1 nmol/kg peptide s.c.",77 % of Basal
same,Plasma Insulin (% of Basal),[2],465 % of Basal
same,Islet Insulin Release (% of Basal),rat islets,170 % of Basal
Ac-HSDAVFTENYTKLRKQLAAKKYLNDLKKGGT-NH2 [Peptide R3P1],Plasma Glucose (% of Basal) i.v.,"[3]; plasma glucose area under the curve after IPGTT (1 g/kg glucose), % of vehicle, 1 nmol/kg peptide i.v.",73 % of Basal
same,Plasma Insulin (% of Basal),[2],480 % of Basal
same,Islet Insulin Release (% of Basal),rat islets,250 % of Basal
HSDGIFTDSYSRYRKQLAAKKYLADVKK [Peptide R3P38],EC50,PACAP-R3 [4],2.3 nM
same,EC50,PACAP-R2,17 nM
CC[C@H](C)[C@H](NC(=O)CNC(=O)[C@H](CC(=O)O)NC(=O)[C@H](CO)NC(=O)[C@@H](N)Cc1c[nH]cn1)C(=O)N[C@@H](Cc1ccccc1)C(=O)N[C@H](C(=O)N[C@@H](CC(=O)O)C(=O)N[C@@H](CO)C(=O)N[C@@H](CCCCN)C(=O)N[C@@H](CO)C(=O)N[C@@H](CCCNC(=N)N)C(=O)N[C@@H](Cc1ccc(O)cc1)C(=O)N[C@@H](CCCNC(=N)N)C(=O)N[C@@H](CCCCN)C(=O)N[C@@H](CCC(N)=O)C(=O)N[C@@H](CCSC)C(=O)N[C@@H](C)C(=O)N[C@H](C(=O)N[C@@H](CCCCN)C(=O)N[C@@H](CCCCN)C(=O)N[C@@H](Cc1ccc(O)cc1)C(=O)N[C@@H](CC(C)C)C(=O)N[C@@H](C)C(=O)N[C@@H](C)C(=O)N[C@H](C(=O)N[C@@H](CC(C)C)C(N)=O)C(C)C)C(C)C)[C@@H](C)O [PAC10],EC50,PACAP-R3 [4],27 nM
same,EC50,PACAP-R2,110 nM
B1,"R3 EC50, nM (cAMP SPA)",[5],1 nM
B2,"R3 EC50, nM (cAMP SPA)",[5],0.4 nM
same,R3 Selectivity,[5],200 ratio
B3,"R3 EC50, nM (cAMP SPA)",[5],1.1 nM
same,R3 Selectivity,[5],1.4 ratio
B4,"R3 EC50, nM (cAMP SPA)",[5],200 nM
B5,"R3 EC50, nM (cAMP SPA)",[5],2.6 nM
same,R3 Selectivity,[5],29 ratio
B6,"R3 EC50, nM (cAMP SPA)",[5],0.2 nM
